{"source": "patent US7910569B2", "about": "“Microbicidal compositions and their use” (BASF Aktiengesellschaft, priority 2003, dated 2011)", "assay_type_in_all_cases": "cell-based", "key": {"algae": {"system": "algae", "assay": "Surface protection, algal resistance of coating (BBA MOAT 33)", "conditions": "after leaching with running water for 72 hours", "procedure": "(§1) Testing was performed according to the BS3900 G6 and BBA MOAT 33 methods for evaluation versus fungi and algae, respectively. The methods involve painting a substrate panel with the coating and leaching under running water for 72 hours. The substrates are incubated for 56 days after being inoculated with fungi or algae. Performance is judged by comparing with suitable control samples i.e without biocide, a positive control and for fungi with substrate panels that have not been leached.\n(§2) Performance rating of painted test substrates is as follows and a score of 0, 1 and 2 is considered as a pass • 0=no growth • 1=trace of growth • 2=growth on 1-10% of test face • 3=growth on 10-30% of test face • 4=growth on 30-70% of test face • 5=growth on 70-100% of test face. Surface Protection using CuHDO"}, "[1]": {"system": "Bacterial and Fungal Challenges", "assay": "In can preservation challenge test (IBRG draft method), overall efficacy", "conditions": "1000 ppm, acrylic ester and acrylonitrile polymer dispersion", "procedure": "(§3) Tests were performed according to the IBRG draft method (5.2, June 2001). This briefly entails the substrate being dosed with the biocide and allowed to equilibrate. Samples are inoculated once per week for 4 weeks and checked for recovery of organisms at 1, 3 and 7 days after inoculation.\n(§4) Results to show efficacy in a polymer based on an acrylic ester and acrylonitrile polymer dispersion using: • 1000 ppm CuHDO • 1000 ppm in-situ generated CuHDO (by blending within the matrix or medium, 315 ppm of basic copper carbonate containing 57.5% copper content with 3492 ppm of a 30% water soluble solution of potassium salt of N′-hydroxy-N-cyclohexyldiazenium oxide (KHDO))\n(§5) Using the following performance rating: • P=Pass (0-100 colonies) • F=Fail (101->1000 colonies)"}, "Fungal Challenges": {"system": "Fungal Challenges", "assay": "In can preservation challenge test (IBRG draft method), fungal challenges", "conditions": "1000 ppm, acrylic ester and acrylonitrile polymer dispersion", "procedure": "as §3, §4, §5"}, "fungi": {"system": "fungi", "assay": "Surface protection, fungal resistance of coating (BS3900 G6)", "parameters": "key: 0=no growth; 1=trace of growth; 2=growth on 1-10% of test face; 3=growth on 10-30% of test face; 4=growth on 30-70% of test face; 5=growth on 70-100% of test face", "procedure": "as §1, with “The substrates are incubated for 56 days after being inoculated with fungi or algae.” left out\nas §2"}, "Bacterial Challenges": {"system": "Bacterial Challenges", "assay": "In can preservation challenge test (IBRG draft method), bacterial challenges", "conditions": "1000 ppm, acrylic ester and acrylonitrile polymer dispersion", "procedure": "as §3, §4, §5"}, "[2]": {"conditions": "0.15% by weight, after leaching with running water for 72 hours"}, "[3]": {"conditions": "0.15% by weight, coating as applied"}, "[4]": {"conditions": "0.2% by weight, after leaching with running water for 72 hours"}, "[5]": {"conditions": "0.2% by weight, coating as applied"}, "[6]": {"conditions": "1.5% by weight, after leaching with running water for 72 hours"}, "[7]": {"conditions": "1.5% by weight, coating as applied"}, "[8]": {"conditions": "0.5% by weight, after leaching with running water for 72 hours"}, "[9]": {"conditions": "0.5% by weight, coating as applied"}}}
{"smiles": "[Cu+2].[O-]/N=[N+](\\[O-])C1CCCCC1.[O-]/N=[N+](\\[O-])C1CCCCC1", "note": "[CuHDO, copper salt of N′-hydroxy-N-cyclohexyl-diazenium oxide]", "values": [{"measurement": "ALGAL GROWTH ASSESSMENT 28 days", "setting": "algae; 0.15% by weight", "value": "2/2"}, {"measurement": "ALGAL GROWTH ASSESSMENT 42 days", "setting": "algae; 0.15% by weight", "value": "1/1"}, {"measurement": "ALGAL GROWTH ASSESSMENT 56 days", "setting": "algae; 0.15% by weight", "value": "0/1"}, {"measurement": "ALGAL GROWTH ASSESSMENT 28 days", "setting": "algae; 0.2% by weight", "value": 0.1}, {"measurement": "ALGAL GROWTH ASSESSMENT 56 days", "setting": "algae; 0.2% by weight", "value": 1.2}, {"measurement": "ALGAL GROWTH ASSESSMENT 28 days", "setting": "algae; 1.5% by weight", "value": "0/0"}, {"measurement": "ALGAL GROWTH ASSESSMENT 42 days", "setting": "algae; 1.5% by weight", "value": "0/0"}, {"measurement": "ALGAL GROWTH ASSESSMENT 56 days", "setting": "algae; 1.5% by weight", "value": "0/0"}, {"measurement": "Overall Efficacy", "setting": "[1]; pH 5", "value": "F^2 (F=Fail (101->1000 colonies))"}, {"measurement": "Overall Efficacy", "setting": "[1]; pH 7", "value": "P (P=Pass (0-100 colonies))"}, {"measurement": "Overall Efficacy", "setting": "[1]; pH 9", "value": "P (P=Pass (0-100 colonies))"}, {"measurement": "Fungal Challenges", "setting": "Fungal Challenges; pH 5", "value": "F^2 (F=Fail (101->1000 colonies))"}, {"measurement": "Fungal Challenges", "setting": "Fungal Challenges; pH 7", "value": "P (P=Pass (0-100 colonies))"}, {"measurement": "Fungal Challenges", "setting": "Fungal Challenges; pH 9", "value": "P (P=Pass (0-100 colonies))"}, {"measurement": "FUNGAL GROWTH ASSESSMENT Plaster Substrate 28 days", "setting": "fungi; [2]", "value": 1}, {"measurement": "FUNGAL GROWTH ASSESSMENT Plaster Substrate 42 days", "setting": "fungi; [2]", "value": 1}, {"measurement": "FUNGAL GROWTH ASSESSMENT Plaster Substrate 56 days", "setting": "fungi; [2]", "value": "2 (2=growth on 1-10% of test face)"}, {"measurement": "FUNGAL GROWTH ASSESSMENT Wood Substrate 28 days", "setting": "fungi; [2]", "value": 1}, {"measurement": "FUNGAL GROWTH ASSESSMENT Wood Substrate 42 days", "setting": "fungi; [2]", "value": 1}, {"measurement": "FUNGAL GROWTH ASSESSMENT Wood Substrate 56 days", "setting": "fungi; [2]", "value": "2 (2=growth on 1-10% of test face)"}, {"measurement": "FUNGAL GROWTH ASSESSMENT Plaster Substrate 28 days", "setting": "fungi; [3]", "value": 1}, {"measurement": "FUNGAL GROWTH ASSESSMENT Plaster Substrate 42 days", "setting": "fungi; [3]", "value": 1}, {"measurement": "FUNGAL GROWTH ASSESSMENT Plaster Substrate 56 days", "setting": "fungi; [3]", "value": 1}, {"measurement": "FUNGAL GROWTH ASSESSMENT Wood Substrate 28 days", "setting": "fungi; [3]", "value": 1}, {"measurement": "FUNGAL GROWTH ASSESSMENT Wood Substrate 42 days", "setting": "fungi; [3]", "value": 1}, {"measurement": "FUNGAL GROWTH ASSESSMENT Wood Substrate 56 days", "setting": "fungi; [3]", "value": 1}, {"measurement": "FUNGAL GROWTH ASSESSMENT Plaster Substrate 28 days", "setting": "fungi; [4]", "value": "2 (2=growth on 1-10% of test face)"}, {"measurement": "FUNGAL GROWTH ASSESSMENT Plaster Substrate 56 days", "setting": "fungi; [4]", "value": "3 (3=growth on 10-30% of test face)"}, {"measurement": "FUNGAL GROWTH ASSESSMENT Wood Substrate 28 days", "setting": "fungi; [4]", "value": "2 (2=growth on 1-10% of test face)"}, {"measurement": "FUNGAL GROWTH ASSESSMENT Wood Substrate 56 days", "setting": "fungi; [4]", "value": "3 (3=growth on 10-30% of test face)"}, {"measurement": "FUNGAL GROWTH ASSESSMENT Plaster Substrate 28 days", "setting": "fungi; [5]", "value": 1}, {"measurement": "FUNGAL GROWTH ASSESSMENT Plaster Substrate 56 days", "setting": "fungi; [5]", "value": 1}, {"measurement": "FUNGAL GROWTH ASSESSMENT Wood Substrate 28 days", "setting": "fungi; [5]", "value": 1}, {"measurement": "FUNGAL GROWTH ASSESSMENT Wood Substrate 56 days", "setting": "fungi; [5]", "value": 1}, {"measurement": "FUNGAL GROWTH ASSESSMENT Plaster Substrate 28 days", "setting": "fungi; [6]", "value": 1}, {"measurement": "FUNGAL GROWTH ASSESSMENT Plaster Substrate 42 days", "setting": "fungi; [6]", "value": 1}, {"measurement": "FUNGAL GROWTH ASSESSMENT Plaster Substrate 56 days", "setting": "fungi; [6]", "value": 1}, {"measurement": "FUNGAL GROWTH ASSESSMENT Wood Substrate 28 days", "setting": "fungi; [6]", "value": 1}, {"measurement": "FUNGAL GROWTH ASSESSMENT Wood Substrate 42 days", "setting": "fungi; [6]", "value": 1}, {"measurement": "FUNGAL GROWTH ASSESSMENT Wood Substrate 56 days", "setting": "fungi; [6]", "value": 1}, {"measurement": "FUNGAL GROWTH ASSESSMENT Plaster Substrate 28 days", "setting": "fungi; [7]", "value": 1}, {"measurement": "FUNGAL GROWTH ASSESSMENT Plaster Substrate 42 days", "setting": "fungi; [7]", "value": 1}, {"measurement": "FUNGAL GROWTH ASSESSMENT Plaster Substrate 56 days", "setting": "fungi; [7]", "value": 1}, {"measurement": "FUNGAL GROWTH ASSESSMENT Wood Substrate 28 days", "setting": "fungi; [7]", "value": 1}, {"measurement": "FUNGAL GROWTH ASSESSMENT Wood Substrate 42 days", "setting": "fungi; [7]", "value": 1}, {"measurement": "FUNGAL GROWTH ASSESSMENT Wood Substrate 56 days", "setting": "fungi; [7]", "value": 1}, {"measurement": "Bacterial Challenges", "setting": "Bacterial Challenges; pH 5", "value": "P (P=Pass (0-100 colonies))"}, {"measurement": "Bacterial Challenges", "setting": "Bacterial Challenges; pH 7", "value": "P (P=Pass (0-100 colonies))"}, {"measurement": "Bacterial Challenges", "setting": "Bacterial Challenges; pH 9", "value": "P (P=Pass (0-100 colonies))"}]}
{"smiles": "CCNc1nc(NC(C)(C)C)nc(SC)n1", "note": "[Terbutryn, reference compound]", "values": [{"measurement": "ALGAL GROWTH ASSESSMENT 28 days", "setting": "algae; 0.5% by weight", "value": 0.0}, {"measurement": "ALGAL GROWTH ASSESSMENT 56 days", "setting": "algae; 0.5% by weight", "value": 0.0}]}
{"smiles": "CCCCNC(=O)OCC#CI", "note": "[IPBC, reference compound]", "values": [{"measurement": "FUNGAL GROWTH ASSESSMENT Plaster Substrate 28 days", "setting": "fungi; [8]", "value": 1}, {"measurement": "FUNGAL GROWTH ASSESSMENT Plaster Substrate 56 days", "setting": "fungi; [8]", "value": 1}, {"measurement": "FUNGAL GROWTH ASSESSMENT Wood Substrate 28 days", "setting": "fungi; [8]", "value": 1}, {"measurement": "FUNGAL GROWTH ASSESSMENT Wood Substrate 56 days", "setting": "fungi; [8]", "value": 1}, {"measurement": "FUNGAL GROWTH ASSESSMENT Plaster Substrate 28 days", "setting": "fungi; [9]", "value": 1}, {"measurement": "FUNGAL GROWTH ASSESSMENT Plaster Substrate 56 days", "setting": "fungi; [9]", "value": 1}, {"measurement": "FUNGAL GROWTH ASSESSMENT Wood Substrate 28 days", "setting": "fungi; [9]", "value": 1}, {"measurement": "FUNGAL GROWTH ASSESSMENT Wood Substrate 56 days", "setting": "fungi; [9]", "value": 1}]}
